# Assay results taken from US9278068B2, “Vesicle compositions” (Sensulin LLC, priority 2011, dated 2016).
# Like-named read-outs stand apart in the source and are kept apart here.
# Assays:
# [1] = system: NF-κB; settings: human
# Method: (§1) 15,000 HeLa cells were plated in 96 well plates the night before the experiments. On the day of the experiments, the cells were treated with the boronic acids (Table 1, below) at three different concentrations (40 nM, 80 nM, and 160 nM) for 2 h. At the end of the incubation, cells were washed with phosphate buffered saline (PBS) and were fixed in 4% paraformaldehyde for 15 min and permeablized with 0.01% Triton X-100 in PBS for 10 min. The cells were washed with PBS three times. Nonspecific sites were blocked with 5% bovine serum albumin (BSA) in PBS and incubated with the Anti-NF-κB for 1 h, followed by incubation with fluorescein isothiocyanate (FITC)-labeled secondary antibody. After washing the cells at the end of the incubation, the cells were treated with 4′,6-diamidino-2-phenylindole (DAPI) for 1 min and kept at 4° C. until further analysis. Images of the cells were acquired with a Beckman-Coulter 100 automated high-throughput microscope system and analyzed using Cytseer software (Vala Sciences, CA). The co-localization of NF-κB was quantified by measuring the PCC between the nuclear and cytoplasmic fraction of the NF-κB molecule. The PCC is a measure of the overlap between the pixel intensities of the nuclear and NF-κB images of the same cell. The PCC values can range from −1 to 1. […] A negative correlation (negative PCC value) indicates an absence of nuclear translocation.
# [2] = system: HeLa cells; settings: human
# Method: (§2) The cytotoxicity of the boronic acid derivatives from Table 1 was studied by MTT assay. 150,000 HeLa cells were plated in 96 well plates on the night before the experiments. On the day of experiments, the cells were treated with the boronic acid derivatives at three different concentrations (40 nM, 80 nM, and 160 nM) for 2 h. At the end of the incubation, MTT assays (In-Vitro toxicology MTT based assay kit, Sigma Aldrich, MO) were performed according to the manufacturer's protocol.
# [3] = Binding assay: competition with ConA-FITC on glucose-terminated magnetic beads; settings: relative to ConA; 2.4 μM ConA-FITC, boronic acid 2.5 μM to 20 μM, PBS pH 7.2
# Method: The binding affinity of boronic acid derivatives to glucose was determined by competition assay using ConcanavalinA (ConA) as the competitive standard, and varying concentrations of the boronic acid derivatives. Carboxy-terminated magnetic beads were activated by suspending the beads in 100 mM 2-(N-morpholino)ethanesulfonic acid (MES) buffer (pH 4.5). Glucosamine (100 mg/mL) was conjugated to the activated magnetic beads using carbodiimide coupling with 1-ethyl-3-(3-dimethylaminopropyl)carbodiimide (EDC) as a crosslinker. The conjugation reaction was carried out in a 96 well plate. The reaction was run for 24 h. The beads were separated by placing the microplate on a magnetic separator and were washed thoroughly with PBS at pH 7.2 to remove unbound glucose, excess EDC, and N-hydroxysulfosuccinimide (Sulfo-NHS).
# The glucose terminated beads were co-incubated for 1 h with 2.4 μM ConA (a known binder of carbohydrates) fluorescently tagged with fluorescein isothiocyanate (ConA-FITC), and titrated with concentrations ranging from 2.5 μM to 20 μM of each boronic acid derivative tested. The following controls were used: (A) carboxy-terminated magnetic beads (not conjugated to glucose) were treated with ConA-FITC to determine non-specific binding; and (B) glucose conjugated beads were treated with a high concentration of non-fluorescent ConA to determine maximal binding.
# The wells were washed three times with PBS at pH 7.2 to remove unbound boronic acid derivatives and FITC-ConA. The beads were re-suspended in PBS and stirred for 15 min at rt before measuring FITC fluorescence (excitation: 495 nm, top emission: 520 nm; 6 flashes per well; average of n=3 wells in a Flexstation 11^384 microplate reader to quantify the amount of glucose bound to the boronic acids). The fluorescence intensity was measured and used as an indication of the amount of ConA bound to the surface of the beads, or [ConAs]. The ConA-sugar interaction was expected to be inhibited by the boronic acid derivatives, which can bind the sugar molecules and displace the bound ConA-FITC, thereby causing a decrease in fluorescence intensity of the mixture.
# The binding constant of the boronic acid derivatives was calculated from the fluorescence intensity. The reduction of fluorescence intensity is related to [ConAs] by Equation 2.
# [formula] The relationship between [ConAs] and the amount of boronic acid [BA] is given by Equation 3.
# [formula] Simple rearrangement yields Equation 4, from which the ratio of the two equilibrium constants (KConA/KBA) can be derived.
# [formula] • The concentration of sugar sites (S1) can be calculated from the intercept of a plot of 1/[ConAs] vs 1/[BA].
# [4] = system: HeLa cells; assay: MTT assay for cytotoxicity; settings: 2 h
# Method: as §2
# [5] = system: NF-κB; assay: NF-κB assay for inflammation (nuclear translocation of NF-κB, immunocytochemistry, PCC); settings: HeLa cells, 2 h, PCC between nuclear and cytoplasmic fraction of NF-κB
# Method: as §1
structure (smiles),measurement,setting,value
OB(O)c1ccc(Cl)cc1 [4-chlorophenylboronic acid],Inflammation (PCC) 40 nM,[1],−0.1494
same,Inflammation (PCC) 80 nM,[1],0.01664
same,Inflammation (PCC) 160 nM,[1],0
same,MTT (% Cell Survival) 40 nM,[2],51.23%
same,MTT (% Cell Survival) 80 nM,[2],81.65%
same,MTT (% Cell Survival) 160 nM,[2],56.97%
OB(O)c1ccc(-c2ccccc2)s1 [5-phenyl-2-thienylboronic acid],Sugar Binding Affinity Log(KaBA/KaConA),[3],−2.3
same,MTT (% Cell Survival) 40 nM,[4],100.56%
same,MTT (% Cell Survival) 80 nM,[4],81.24%
same,MTT (% Cell Survival) 160 nM,[4],86.23%
same,Inflammation (PCC) 40 nM,[5],−0.0211
same,Inflammation (PCC) 80 nM,[5],−0.0701
same,Inflammation (PCC) 160 nM,[5],0.1187
"CN(C)c1cccc(B(O)O)c1 [3-(N,N-dimethylamino)phenyl boronic acid]",Sugar Binding Affinity Log(KaBA/KaConA),[3],−0.14
same,MTT (% Cell Survival) 40 nM,[4],123.37%
same,MTT (% Cell Survival) 80 nM,[4],86.2247%
same,MTT (% Cell Survival) 160 nM,[4],85.91%
same,Inflammation (PCC) 40 nM,[5],−0.1236
same,Inflammation (PCC) 80 nM,[5],−0.0401
same,Inflammation (PCC) 160 nM,[5],0.1862
